17 compounds from patent US10188634B2, “3-(3H-imidazo[4,5-C]pyridin-2-yl)-1 H-pyrazolo[4,3-B]pyridines and therapeutic uses thereof” (Samumed, LLC, priority 2015, dated 2019) can be followed below.

Experiment [1] has as its system LL29 cells (primary human fibroblasts derived from IPF patients) treated with TGF-β1, α-smooth muscle actin. As to the kind of experiment: Inhibition of the fibrotic process: αSMA staining in TGF-β1 treated primary human fibroblasts from IPF patients (LL29 cells). It is filed as cell-based. To be noted: Fibroblast, 96 h; for EC50: LL29 cells treated with TGF-β1 (20 ng/mL), 4 days; for inhibition at 10 µM: LL29 cells treated with TGF-β1, 4 days, read-out: percent inhibition in brackets (given for EC50 >10 μM).

The subject of experiment [2] is primary human mesenchymal stem cells (hMSCs). The experiment can be described thus: Induction of chondrogenesis in primary human mesenchymal stem cells (hMSCs), nodule imaging with Rhodamine B / Nile Red. It is filed as cell-based. As to conditions: for Emax: hMSCs chondrogenesis, TGF-β3 (10 ng/mL) as positive control, read-out: Max. Activity as % TGF-β3 activity; for EC50: hMSCs, concentration required to induce 50% levels of chondrogenesis vs TGF-β3 positive control, read-out: Conc (nM) of 50% TGF-β3 activity. On the procedure: Representative compounds were screened using primary human mesenchymal stem cells (hMSCs) to determine their ability to induce chondrogenesis (process by which cartilage is developed).
Human Mesenchymal Stem Cell Culture: Primary human mesenchymal stem cells (hMSCs) were purchased from Lonza (Walkersville, Md.) and expanded in Mesenchymal Stem Cell Growth Media (Lonza). Cells between passage 3 and 6 were used for the experiments.
Compound Screening: Each compound was dissolved in DMSO as a 10 mM stock and used to prepare compound source plates. For the 96 well assay, serial dilution (1:3, 6-point dose-response curves from 2700 nM to 10 nM) and compound transfer was performed using the ECHO 550 (Labcyte, Sunnyvale, Calif.) into 96-well clear bottom assay plates (Greiner Bio-One) with appropriate DMSO backfill for a final DMSO concentration of 0.03%. hMSCs were plated at 20,000 cells/well in 250 μL/well Incomplete Chondrogenic Induction Medium (Lonza; DMEM, dexamethasone, ascorbate, insulin-transferrin-selenium [ITS supplement], gentamycin-amphotericin [GA-1000], sodium pyruvate, proline and L-glutamine). TGF-β3 (10 ng/mL) was used as a positive control for differentiation while negative control wells were treated with 75 nL DMSO for normalization and calculating EC50 values. For the 384 well assay, serial dilution (1:3, 8-point dose-response curves from 5000 nM to 2.2 nM) and compound transfer was performed using the ECHO 550 (Labcyte, Sunnyvale, Calif.) into 384-well clear bottom assay plates (Greiner Bio-One) with appropriate DMSO backfill for a final DMSO concentration of 0.03%. hMSCs were plated at 8,000 cells/well in 80 μL/well Incomplete Chondrogenic Induction Medium (Lonza; DMEM, dexamethasone, ascorbate, insulin-transferrin-selenium [ITS supplement], gentamycin-amphotericin [GA-1000], sodium pyruvate, proline and L-glutamine). TGF-β3 (10 ng/mL) was used as a positive control for differentiation while negative control wells were treated with 25 nL DMSO for normalization and calculating EC50 values. Cells were incubated at 37° C. and 5% CO2 for 6 days. To image chondrogenic nodules, the cells were fixed using 4% formaldehyde (Electron Microscopy Sciences), and stained with 2 μg/mL Rhodamine B (Sigma-Aldrich) and 20 μM Nile Red (Sigma-Aldrich) [Johnson K., et.al, A Stem Cell-Based Approach to Cartilage Repair, Science, (2012), 336(6082). 717-721]. The nodules imaged (25 images per well for 96 well plates and 9 images per well for 384 well plates at 10× magnification) by excitation at 531 nm and emission at 625 nm and quantified using the CellInsight CX5 (Thermo Scientific). Area of nodules in each well was normalized to the average of 3 DMSO treated wells on the same plate using Excel (Microsoft Inc.). The normalized averages (fold change over DMSO) of 2 or 3 replicate wells for each compound concentration were calculated. Due to solubility limitations of some of the compounds, curve fitting was incomplete leading to inaccurate EC50 determinations.
Using TGF-β3 as a positive control, the concentration of representative compounds required to induce 50% levels of chondrogenesis is reported. In addition, the maximum activity of each compound and the respective dose that each compound reached maximum chondrogenesis activity is reported.

With `CN1CCN(c2cncc3[nH]c(-c4n[nH]c5ccc(-c6cncc(N)c6)nc45)nc23)CC1` [Compound 227, 5-(3-(7-(4-Methylpiperazin-1-yl)-3H-imidazo[4,5-c]pyridin-2-yl)-1H-pyrazolo[4,3-b]pyridin-5-yl)pyridin-3-amine], the EC50 in experiment [1] is 4830 nM. Moreover, in experiment [2], the Emax amounted to 65% and the EC50 was 30 nM.
The inhibition is the change of the read-out against control, counted positive when it falls. `CC(C)C(=O)Nc1cncc(-c2ccc3[nH]nc(-c4nc5c(N6CCN(C)CC6)cncc5[nH]4)c3n2)c1` [Compound 233, N-(5-(3-(7-(4-Methylpiperazin-1-yl)-3H-imidazo[4,5-c]pyridin-2-yl)-1H-pyrazolo[4,3-b]pyridin-5-yl)pyridin-3-yl)isobutyramide]: in experiment [1], the EC50 was more than 10000 nM and the inhibition at 10 µM was 3.4%. Moreover, the Emax in experiment [2] was found to be 47%.
For `CCNCc1cncc(-c2ccc3[nH]nc(-c4nc5c(-c6ccoc6)cncc5[nH]4)c3n2)c1` [Compound 286, N-((5-(3-(7-(Furan-3-yl)-3H-imidazo[4,5-c]pyridin-2-yl)-1H-pyrazolo[4,3-b]pyridin-5-yl)pyridin-3-yl)methyl)ethanamine], in that order: more than 10000 nM, 0% and 29%.
As for `CCCCC(=O)Nc1cncc(-c2ccc3[nH]nc(-c4nc5c(-c6ccoc6)cncc5[nH]4)c3n2)c1` [Compound 299, N-(5-(3-(7-(Furan-3-yl)-3H-imidazo[4,5-c]pyridin-2-yl)-1H-pyrazolo[4,3-b]pyridin-5-yl)pyridin-3-yl)pentanamide], in experiment [1], the EC50 was more than 10000 nM and the inhibition at 10 µM was found to be 38.1%. For the same compound, in experiment [2], the Emax is 74% and the EC50 came out at 10 nM.
For `CCC(=O)Nc1cncc(-c2ccc3[nH]nc(-c4nc5c(-c6cccs6)cncc5[nH]4)c3n2)c1` [Compound 309, N-(5-(3-(7-(Thiophen-2-yl)-3H-imidazo[4,5-c]pyridin-2-yl)-1H-pyrazolo[4,3-b]pyridin-5-yl)pyridin-3-yl)propionamide], in that order: more than 10000 nM, 0%, 80% and 30 nM.
`CN(C)Cc1cncc(-c2ccc3[nH]nc(-c4nc5c(-c6cccs6)cncc5[nH]4)c3n2)c1` [Compound 321, N,N-dimethyl-1-(5-(3-(7-(thiophen-2-yl)-3H-imidazo[4,5-c]pyridin-2-yl)-1H-pyrazolo[4,3-b]pyridin-5-yl)pyridin-3-yl)methanamine]: the EC50 turned out to be 7460 nM in experiment [1] and 10 nM in experiment [2]. The Emax in experiment [2] came out at 79%.
Compound `Cc1ccc(-c2cncc3[nH]c(-c4n[nH]c5ccc(-c6cncc(NC(=O)C(C)C)c6)nc45)nc23)s1` [Compound 373, N-(5-(3-(7-(5-Methylthiophen-2-yl)-3H-imidazo[4,5-c]pyridin-2-yl)-1H-pyrazolo[4,3-b]pyridin-5-yl)pyridin-3-yl)isobutyramide] showed an EC50 in experiment [1] of 2630 nM. Further, the Emax in experiment [2] was 42%.
In the case of `CCNCc1cncc(-c2ccc3[nH]nc(-c4nc5c(-c6cc(F)cc(NCCN(C)C)c6)cncc5[nH]4)c3n2)c1` [Compound 426, N^1-(3-(2-(5-(5-((Ethylamino)methyl)pyridin-3-yl)-1H-pyrazolo[4,3-b]pyridin-3-yl)-3H-imidazo[4,5-c]pyridin-7-yl)-5-fluorophenyl)-N^2,N^2-dimethylethane-1,2-diamine], the EC50 came to 5090 nM in experiment [1] and 1670 nM in experiment [2]. Further, the Emax in experiment [2] was 66%.
The corresponding values for `CCCCC(=O)Nc1cncc(-c2ccc3[nH]nc(-c4nc5c(-c6cc(F)cc(NCCN(C)C)c6)cncc5[nH]4)c3n2)c1` [Compound 439, N-(5-(3-(7-(3-((2-(Dimethylamino)ethyl)amino)-5-fluorophenyl)-3H-imidazo[4,5-c]pyridin-2-yl)-1H-pyrazolo[4,3-b]pyridin-5-yl)pyridin-3-yl)pentanamide] are 248 nM, 10 nM and 65%.
In turn, `CCCC(=O)Nc1cncc(-c2ccc3[nH]nc(-c4nc5c(-c6cc(F)cc(CNS(C)(=O)=O)c6)cncc5[nH]4)c3n2)c1` [Compound 465, N-(5-(3-(7-(3-Fluoro-5-(methylsulfonamidomethyl)phenyl)-3H-imidazo[4,5-c]pyridin-2-yl)-1H-pyrazolo[4,3-b]pyridin-5-yl)pyridin-3-yl)butyramide] yielded an EC50 in experiment [1] of 2350 nM. Also, the Emax in experiment [2] was found to be 39%.
The corresponding values for `Fc1cccc(-c2cncc3[nH]c(-c4n[nH]c5ccc(C6CCNCC6)nc45)nc23)c1` [Compound 477, 3-(7-(3-Fluorophenyl)-3H-imidazo[4,5-c]pyridin-2-yl)-5-(piperidin-4-yl)-1H-pyrazolo[4,3-b]pyridine] are 4560 nM and 43%.
The compound `Fc1cccc(-c2cncc3[nH]c(-c4n[nH]c5ccc(C6=CCNCC6)nc45)nc23)c1` [Compound 478, 3-(7-(3-Fluorophenyl)-3H-imidazo[4,5-c]pyridin-2-yl)-5-(1,2,3,6-tetrahydropyridin-4-yl)-1H-pyrazolo[4,3-b]pyridine] came in with an EC50 in experiment [1] of 4990 nM. In experiment [2], the Emax is 53% and the EC50 worked out at 7 nM.
As for `Fc1cccc(-c2cncc3[nH]c(-c4n[nH]c5ccc(-c6cn[nH]c6)nc45)nc23)c1` [Compound 479, 3-(7-(3-Fluorophenyl)-3H-imidazo[4,5-c]pyridin-2-yl)-5-(1H-pyrazol-4-yl)-1H-pyrazolo[4,3-b]pyridine], in experiment [1], the EC50 is more than 10000 nM and the inhibition at 10 µM worked out at 36.2%. In addition, in experiment [2], the Emax came to 52% and the EC50 was 21 nM.
As for `Cn1cc(-c2ccc3[nH]nc(-c4nc5c(-c6cccc(F)c6)cncc5[nH]4)c3n2)cn1` [Compound 480, 3-(7-(3-Fluorophenyl)-3H-imidazo[4,5-c]pyridin-2-yl)-5-(1-methyl-1H-pyrazol-4-yl)-1H-pyrazolo[4,3-b]pyridine], in experiment [1], the EC50 was more than 10000 nM and the inhibition at 10 µM came out at 4.2%. Also, in experiment [2], the Emax worked out at 49%.
For `Cc1ncc(-c2ccc3[nH]nc(-c4nc5c(-c6cccc(F)c6)cncc5[nH]4)c3n2)n1C` [Compound 481, 5-(1,2-Dimethyl-1H-imidazol-5-yl)-3-(7-(3-fluorophenyl)-3H-imidazo[4,5-c]pyridin-2-yl)-1H-pyrazolo[4,3-b]pyridine], in experiment [1], the EC50 was more than 10000 nM and the inhibition at 10 µM stood at 4.5%. Also, in experiment [2], the Emax amounted to 132% and the EC50 stood at 30 nM.
The corresponding values for `NC1CN(c2cncc(-c3ccc4[nH]nc(-c5nc6c(-c7cccc(F)c7)cncc6[nH]5)c4n3)n2)C1` [Compound 482, 1-(6-(3-(7-(3-Fluorophenyl)-3H-imidazo[4,5-c]pyridin-2-yl)-1H-pyrazolo[4,3-b]pyridin-5-yl)pyrazin-2-yl)azetidin-3-amine] are more than 10000 nM, 16.7%, 56% and 7 nM.
In experiment [1], `Fc1cccc(-c2cncc3[nH]c(-c4n[nH]c5ccc(-c6cncc(OC7CCNCC7)c6)nc45)nc23)c1` [Compound 484, 3-(7-(3-Fluorophenyl)-3H-imidazo[4,5-c]pyridin-2-yl)-5-(5-(piperidin-4-yloxy)pyridin-3-yl)-1H-pyrazolo[4,3-b]pyridine] came in with an EC50 of 1420 nM. In experiment [2], the Emax came out at 82% and the EC50 stood at 7 nM.
